Where two headings read alike, the source gives them in different places.
Columns and labels:
giant foxtail = assay: Test B pre-/postemergence herbicide test; assay type: in vivo, Setaria faberi; conditions: for Foxtail, Giant plant response rating (0 to 100 scale) / Plant response rating, Foxtail, Giant: preemergence; for pest or weed control at 125 g/ha / pest or weed control at 500 g/ha: Setaria faberi, 336 h
How it was run: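 Herbicidal effect was judged by eye on a 0–100 scale after plants stood 13 to 15 days in the greenhouse following pre- or postemergence treatment with surfactant-containing formulations.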

pigweed = assay: Test C pre-/postemergence herbicide test; assay type: in vivo, Amaranthus retroflexus
How it was run: (§1)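 Visual injury scores run from 0 (no effect) to 100 (complete control), assessed relative to untreated controls 12 to 14 days after treatment in the greenhouse. Chemicals were formulated in a non-phytotoxic solvent mixture with surfactant and applied to soil after planting or to emerged plants at the 1- to 4-leaf stage.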

cocklebur = assay: Test C pre-/postemergence herbicide test; assay type: in vivo, Xanthium strumarium
How it was run: as §1

corn = assay: Test C pre-/postemergence herbicide test; assay type: in vivo, Zea mays
How it was run: as §1

ducksalad = assay: Test C flooded paddy test; assay type: in vivo, Heteranthera limosa; conditions: for Plant response rating, Ducksalad: 500 g ai/ha, visual rating after 12 to 14 days
kochia = assay: Test C pre-/postemergence herbicide test; assay type: in vivo, Kochia scoparia
How it was run: as §1

yellow nutsedge = assay: Test C pre-/postemergence herbicide test; assay type: in vivo, Cyperus esculentus
How it was run: as §1

barnyardgrass = assay: Test C flooded paddy test; assay type: in vivo, Echinochloa crus-galli; conditions: for Plant response rating, Barnyardgrass: 500 g ai/ha, visual rating after 12 to 14 days
How it was run: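 Ratings (0 = no effect, 100 = complete control) come from visual comparison with untreated plants after 12 to 14 days in the greenhouse. Treatment was postemergence at the 1- to 4-leaf stage (2–18 cm), or at the 2-leaf stage for the flooded paddy barnyardgrass.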

[1] = 125 g ai/ha, 0 = no effect, 100 = complete control
[2] = 125 g ai/ha, visual rating, scale 0 (no effect) to 100 (complete control), postemergence
[3] = 500 g ai/ha, visual rating, 0 = no effect, 100 = complete control
[4] = postemergence, 500 g ai/ha, scale 0 to 100, 0 is no effect, 100 is complete control
[5] = 62 g ai/ha, preemergence, scale 0 to 100
[6] = 125 g ai/ha, scale 0 (no effect) to 100 (complete control), visual, 12 to 14 days, preemergence
[7] = 250 g ai/ha, scale 0-100, preemergence
[8] = 500 g ai/ha, scale 0 to 100 (0 no effect, 100 complete control), visual, 12 to 14 days, preemergence
[9] = Preemergence, 500 g ai/ha, scale 0 to 100, 0 no effect, 100 complete control
[10] = 125 g ai/ha, scale 0 to 100 (0 no effect, 100 complete control)
[11] = 250 g ai/ha, scale of 0 to 100, 0 is no effect, 100 is complete control
[12] = scale 0 to 100 (0 no effect, 100 complete control)
[13] = 62 g ai/ha, scale 0 to 100 (0 no effect, 100 complete control)

CCc1nn(C(C)(C)C)cc1C(=O)Nc1cc(C(=O)N(C)C)ccn1 [Compound 293]
Foxtail, Giant plant response rating (0 to 100 scale) (giant foxtail; [1]): 60 | Foxtail, Giant plant response rating (giant foxtail; [2]): 20 | Plant response rating, Foxtail, Giant (giant foxtail; [3]): 100 | Foxtail, Giant plant response rating (giant foxtail; [4]): 30 | Plant response rating, Pigweed (pigweed; [5]): 20 | Plant response rating, Pigweed (pigweed; [6]): 85 | Plant response rating, Pigweed (pigweed; [7]): 95 | Plant response rating, Pigweed (pigweed; [8]): 100 | Plant response rating, Cocklebur (cocklebur; [5]): 0 | Plant response rating, Cocklebur (cocklebur; [7]): 20 | Cocklebur plant response rating (cocklebur; [9]): 60 | Plant response rating, Corn (corn; [6]): 10 | Plant response rating, Corn (corn; [7]): 80 | Plant response rating, Corn (corn; [8]): 95 | Ducksalad plant response rating (ducksalad; 62 g ai/ha, scale 0 to 100): 0 | Ducksalad plant response rating (ducksalad; [10]): 65 | Ducksalad plant response rating (ducksalad; [11]): 80 | Plant response rating, Ducksalad (ducksalad; [12]): 95 | Plant response rating, Kochia (kochia; [5]): 100 | Plant response rating, Kochia (kochia; [6]): 100 | Plant response rating, Kochia (kochia; [7]): 100 | Plant response rating, Kochia (kochia; [8]): 100 | Plant response rating, Nutsedge, Yellow (yellow nutsedge; [5]): 0 | Plant response rating, Nutsedge, Yellow (yellow nutsedge; [6]): 0 | Plant response rating, Nutsedge, Yellow (yellow nutsedge; [7]): 0 | Plant response rating, Nutsedge, Yellow (yellow nutsedge; [8]): 20 | Barnyardgrass plant response rating (barnyardgrass; [13]): 0 | Barnyardgrass plant response rating (barnyardgrass; [10]): 20 | Barnyardgrass plant response rating (barnyardgrass; [11]): 70 | Plant response rating, Barnyardgrass (barnyardgrass; [12]): 80

CCn1nc(C(C)(C)C)cc1C(=S)Nc1cc(C(=S)N(C)C)ccc1F [Compound 305]
Foxtail, Giant plant response rating (0 to 100 scale) (giant foxtail; [1]): 80 | Foxtail, Giant plant response rating (giant foxtail; [2]): 20 | Plant response rating, Foxtail, Giant (giant foxtail; [3]): 100 | Foxtail, Giant plant response rating (giant foxtail; [4]): 20 | Plant response rating, Pigweed (pigweed; [5]): 100 | Plant response rating, Pigweed (pigweed; [6]): 100 | Plant response rating, Pigweed (pigweed; [7]): 100 | Plant response rating, Pigweed (pigweed; [8]): 100 | Plant response rating, Cocklebur (cocklebur; [5]): 10 | Plant response rating, Cocklebur (cocklebur; [6]): 15 | Plant response rating, Cocklebur (cocklebur; [7]): 65 | Cocklebur plant response rating (cocklebur; [9]): 90 | Plant response rating, Corn (corn; [5]): 0 | Plant response rating, Corn (corn; [6]): 40 | Plant response rating, Corn (corn; [7]): 45 | Plant response rating, Corn (corn; [8]): 45 | Ducksalad plant response rating (ducksalad; 62 g ai/ha, scale 0 to 100): 0 | Ducksalad plant response rating (ducksalad; [10]): 0 | Ducksalad plant response rating (ducksalad; [11]): 0 | Plant response rating, Ducksalad (ducksalad; [12]): 0 | Plant response rating, Kochia (kochia; [5]): 100 | Plant response rating, Kochia (kochia; [6]): 100 | Plant response rating, Kochia (kochia; [7]): 100 | Plant response rating, Kochia (kochia; [8]): 100 | Plant response rating, Nutsedge, Yellow (yellow nutsedge; [5]): 10 | Plant response rating, Nutsedge, Yellow (yellow nutsedge; [6]): 20 | Plant response rating, Nutsedge, Yellow (yellow nutsedge; [7]): 25 | Plant response rating, Nutsedge, Yellow (yellow nutsedge; [8]): 50 | Barnyardgrass plant response rating (barnyardgrass; [13]): 70 | Barnyardgrass plant response rating (barnyardgrass; [10]): 85 | Barnyardgrass plant response rating (barnyardgrass; [11]): 95 | Plant response rating, Barnyardgrass (barnyardgrass; [12]): 100

CCn1nc(C(C)(C)C)cc1C(=O)Nc1cc(C(=S)N(C)C)ccc1F [Compound 294]
Foxtail, Giant plant response rating (0 to 100 scale) (giant foxtail; [1]): 90 | Foxtail, Giant plant response rating (giant foxtail; [2]): 30 | Plant response rating, Foxtail, Giant (giant foxtail; [3]): 100 | Foxtail, Giant plant response rating (giant foxtail; [4]): 50 | Plant response rating, Pigweed (pigweed; [5]): 100 | Plant response rating, Pigweed (pigweed; [6]): 100 | Plant response rating, Pigweed (pigweed; [7]): 100 | Plant response rating, Pigweed (pigweed; [8]): 100 | Plant response rating, Cocklebur (cocklebur; [5]): 30 | Plant response rating, Cocklebur (cocklebur; [6]): 40 | Plant response rating, Cocklebur (cocklebur; [7]): 80 | Cocklebur plant response rating (cocklebur; [9]): 85 | Plant response rating, Corn (corn; [5]): 55 | Plant response rating, Corn (corn; [6]): 60 | Plant response rating, Corn (corn; [7]): 60 | Plant response rating, Corn (corn; [8]): 80 | Ducksalad plant response rating (ducksalad; 62 g ai/ha, scale 0 to 100): 90 | Ducksalad plant response rating (ducksalad; [10]): 95 | Ducksalad plant response rating (ducksalad; [11]): 95 | Plant response rating, Ducksalad (ducksalad; [12]): 95 | Plant response rating, Kochia (kochia; [5]): 100 | Plant response rating, Kochia (kochia; [6]): 100 | Plant response rating, Kochia (kochia; [7]): 100 | Plant response rating, Kochia (kochia; [8]): 100 | Plant response rating, Nutsedge, Yellow (yellow nutsedge; [5]): 50 | Plant response rating, Nutsedge, Yellow (yellow nutsedge; [6]): 55 | Plant response rating, Nutsedge, Yellow (yellow nutsedge; [7]): 80 | Plant response rating, Nutsedge, Yellow (yellow nutsedge; [8]): 90 | Barnyardgrass plant response rating (barnyardgrass; [13]): 75 | Barnyardgrass plant response rating (barnyardgrass; [10]): 90 | Barnyardgrass plant response rating (barnyardgrass; [11]): 95 | Plant response rating, Barnyardgrass (barnyardgrass; [12]): 100

CCc1nn(C(C)(C)C)cc1C(=O)Nc1cccc(C(=O)N(CC)CC)c1 [Compound 182, N-[3-[(diethylamino)carbonyl]phenyl]-1-(1,1-dimethylethyl)-3-ethyl-1H-pyrazole-4-carboxamide]
pest or weed control at 125 g/ha (giant foxtail; post-emergence, postemergence, 125 g ai/ha, visual rating, scale 0 (no effect) to 100 (complete control), read-out: Foxtail, Giant plant response rating): 0% | pest or weed control at 500 g/ha (giant foxtail; post-emergence, postemergence, 500 g ai/ha, visual rating, scale 0 (no effect) to 100 (complete control), read-out: Foxtail, Giant plant response rating): 20% | pest or weed control at 125 g/ha (giant foxtail; pre-emergence, 125 g ai/ha, 0 = no effect, 100 = complete control, read-out: Foxtail, Giant plant response rating (0 to 100 scale)): 30% | pest or weed control at 500 g/ha (giant foxtail; pre-emergence, 500 g ai/ha, visual rating 0-100, 0 no effect, 100 complete control, read-out: Plant response rating, Foxtail, Giant): 100% | pest or weed control at 62 g/ha (pigweed; Amaranthus retroflexus, pre-emergence, 62 g ai/ha, preemergence, scale 0 to 100, read-out: Plant response rating, Pigweed): 95% | pest or weed control at 125 g/ha (pigweed; Amaranthus retroflexus, pre-emergence, 125 g ai/ha, scale 0 (no effect) to 100 (complete control), visual, 12 to 14 days, read-out: Plant response rating, Pigweed): 95% | Pigweed plant response rating (pigweed; [9]): 95 | pest or weed control at 62 g/ha (cocklebur; Xanthium strumarium, pre-emergence, 312 h, 62 g ai/ha, preemergence, scale 0 to 100, read-out: Plant response rating, Cocklebur): 0% | pest or weed control at 125 g/ha (cocklebur; Xanthium strumarium, pre-emergence, 312 h, 125 g ai/ha, scale 0 (no effect) to 100 (complete control), visual, 12 to 14 days, read-out: Plant response rating, Cocklebur): 0% | pest or weed control at 250 g/ha (cocklebur; Xanthium strumarium, pre-emergence, 312 h, 250 g ai/ha, scale 0 to 100 (0 no effect, 100 complete control), visual, 12 to 14 days, read-out: Plant response rating, Cocklebur): 0% | pest or weed control at 500 g/ha (cocklebur; Xanthium strumarium, pre-emergence, 312 h, Preemergence, 500 g ai/ha, scale 0 to 100, 0 no effect, 100 complete control, read-out: Cocklebur plant response rating): 0% | Corn plant response rating (corn; [9]): 0 | Corn plant response rating (crop injury, 0 = no effect, 100 = complete kill) at 62 g/ha (corn; Zea mays, pre-emergence, 312 h, 62 g ai/ha, preemergence, scale 0 to 100): 0% | Corn plant response rating (crop injury, 0 = no effect, 100 = complete kill) at 125 g/ha (corn; Zea mays, pre-emergence, 312 h, 125 g ai/ha, scale 0 (no effect) to 100 (complete control), visual, 12 to 14 days): 0% | Corn plant response rating (crop injury, 0 = no effect, 100 = complete kill) at 250 g/ha (corn; Zea mays, pre-emergence, 312 h, 250 g ai/ha, scale 0 to 100 (0 no effect, 100 complete control), visual, 12 to 14 days): 0% | pest or weed control at 62 g/ha (kochia; Bassia scoparia, pre-emergence, 62 g ai/ha, preemergence, scale 0 to 100, read-out: Plant response rating, Kochia): 0% | pest or weed control at 125 g/ha (kochia; Bassia scoparia, pre-emergence, 125 g ai/ha, scale 0 (no effect) to 100 (complete control), visual, 12 to 14 days, read-out: Plant response rating, Kochia): 60% | Kochia plant response rating (kochia; [9]): 90 | pest or weed control at 62 g/ha (yellow nutsedge; Cyperus, pre-emergence, 62 g ai/ha, preemergence, scale 0 to 100, read-out: Plant response rating, Nutsedge, Yellow): 0% | pest or weed control at 125 g/ha (yellow nutsedge; Cyperus, pre-emergence, 125 g ai/ha, scale 0 (no effect) to 100 (complete control), visual, 12 to 14 days, read-out: Plant response rating, Nutsedge, Yellow): 0% | Nutsedge, Yellow plant response rating (yellow nutsedge; [9]): 0

From US20060069132A1, “Azolecarboxamide herbicides” (priority 2004, published 2006)
